# Test results from patent publication US20060166900A1, “Salt of morphine-6-glucuronide” (CeNeS Limited, priority 2002, published 2006).
# Columns and labels:
# Assay type in all cases: physicochemical
# [1] = Stability of M6G salts at room temperature over 6 years, HPLC
# [2] = Visual appearance on storage (Example 3)
# How it was run: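 Aliquots (900 mg) kept at 2-8 °C beforehand were stored in argon-flushed brown opaque HDPE bottles at 25 °C/60% RH, 40 °C/75% RH and 60 °C. Visual appearance was assessed at set time points.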
# [3] = Water content by Karl Fisher analysis on storage (Example 3)
# How it was run: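 900 mg aliquots were held in argon-flushed brown opaque HDPE bottles at 25 °C/60% RH, 40 °C/75% RH and 60 °C. At each time point, water content (% w/w) was determined in duplicate on about 100 mg of equilibrated material by Karl Fischer titration.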
# [4] = Colour of solution by visible spectrophotometry on storage (Example 3); details: 5% w/v solution in water
# How it was run: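 5% w/v aqueous solution, absorbance at 420 nm in a 1 cm silica cell. Samples were stored in argon-flushed brown opaque HDPE bottles at 25° C./60% RH, 40° C./75% RH and 60° C.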
# [5] = Stability indicating HPLC assay and related substances on storage (Example 3)
# [6] = Storage stability of M6G base (general statement)
compound,measurement,setting,value
"CN1CC[C@]23c4c5ccc(O)c4O[C@H]2[C@@H](O[C@@H]2O[C@H](C(=O)O)[C@@H](O)[C@H](O)[C@H]2O)C=C[C@H]3[C@H]1C5 [Morphine-6-glucuronide base, morphine-6-β-D-glucuronide]",HN-33177,[1]; 0 years,0.7%
same,Unknown related substances (sum area %),[1]; 0 years,<0.1 area %
same,Assay M6G corr.,"[1]; 0 years, content calculated as M6G derivative",98.2%
same,Assay M6G corr.,[1]; 5 years at ambient temperature,81.2%
same,HN-33177,[1]; 5 years at ambient temperature,0.8%
same,Morphine,[1]; 5 years at ambient temperature,0.3%
same,Unknown related substances (sum area %),[1]; 5 years at ambient temperature,11.8 area %
same,Appearance,"[2]; 1 month, 25° C./60% RH",White crystalline powder
same,Appearance,"[2]; 1 month, 40° C./75% RH",Pale yellow crystalline powder
same,Appearance,"[2]; 1 month, 60° C.",Yellow crystalline powder
same,Appearance,"[2]; 3 months, 25° C./60% RH",White crystalline powder
same,Appearance,"[2]; 3 months, 25° C./60% RH, listed as base",white crystalline solids
same,Appearance,"[2]; 3 months, 40° C./75% RH",Yellow crystalline powder
same,Appearance,[2]; Initial,White crystalline powder
same,Moisture,"[3]; 1 month, 25° C./60% RH",9.00 % w/w
same,Moisture,"[3]; 1 month, 40° C./75% RH",9.68 % w/w
same,Moisture,"[3]; 1 month, 60° C.",8.21 % w/w
same,Moisture,"[3]; 3 months, 25° C./60% RH",9.53 % w/w
same,Moisture,"[3]; 3 months, 40° C./75% RH",9.85 % w/w
same,Moisture,[3]; Initial,9.80 % w/w
same,moisture content across storage conditions,[3]; regardless of storage condition,reasonably consistent
same,Colour,"[4]; 1 month, 25° C./60% RH",0.040 Abs@420 nm
same,Colour,"[4]; 1 month, 40° C./75% RH",0.182 Abs@420 nm
same,Colour,"[4]; 1 month, 60° C.",0.541 Abs@420 nm
same,Colour,"[4]; 3 months, 25° C./60% RH",0.132 Abs@420 nm
same,Colour,"[4]; 3 months, 40° C./75% RH",0.680 Abs@420 nm
same,Colour,[4]; Initial,0.017 Abs@420 nm
same,Known Related Substances HN33177,"[5]; 1 month, 25° C./60% RH",0.88%
same,Known Related Substances HN75083,"[5]; 1 month, 25° C./60% RH",0.05%
same,"M6G Assay, Anhydrous basis","[5]; 1 month, 25° C./60% RH",99.61 % w/w
same,"M6G Assay, As is basis","[5]; 1 month, 25° C./60% RH",90.77 % w/w
same,"M6G Assay, Corrected for the salt form","[5]; 1 month, 25° C./60% RH",99.61 % w/w
same,Total Known,"[5]; 1 month, 25° C./60% RH",0.93%
same,Total Related Substances,"[5]; 1 month, 25° C./60% RH",1.00%
same,Total Unknown,"[5]; 1 month, 25° C./60% RH",0.07%
same,Known Related Substances HN33177,"[5]; 1 month, 40° C./75% RH",0.85%
same,Known Related Substances HN67003,"[5]; 1 month, 40° C./75% RH",0.05%
same,Known Related Substances HN75083,"[5]; 1 month, 40° C./75% RH",0.03%
same,"M6G Assay, Anhydrous basis","[5]; 1 month, 40° C./75% RH",99.45 % w/w
same,"M6G Assay, As is basis","[5]; 1 month, 40° C./75% RH",89.94 % w/w
same,"M6G Assay, Corrected for the salt form","[5]; 1 month, 40° C./75% RH",99.45 % w/w
same,Total Known,"[5]; 1 month, 40° C./75% RH",0.93%
same,Total Related Substances,"[5]; 1 month, 40° C./75% RH",1.27%
same,Total Unknown,"[5]; 1 month, 40° C./75% RH",0.34%
same,Known Related Substances HN33177,"[5]; 1 month, 60° C.",0.83%
same,Known Related Substances HN67003,"[5]; 1 month, 60° C.",0.19%
same,Known Related Substances HN75083,"[5]; 1 month, 60° C.",0.02%
same,"M6G Assay, Anhydrous basis","[5]; 1 month, 60° C.",96.18 % w/w
same,"M6G Assay, As is basis","[5]; 1 month, 60° C.",89.31 % w/w
same,"M6G Assay, Corrected for the salt form","[5]; 1 month, 60° C.",96.18 % w/w
same,Total Known,"[5]; 1 month, 60° C.",1.04%
same,Total Related Substances,"[5]; 1 month, 60° C.",2.31%
same,Total Unknown,"[5]; 1 month, 60° C.",1.27%
same,stability based on % w/w assay,[5]; 3 month assay data,most stable
same,Known Related Substances HN33177,"[5]; 3 months, 25° C./60% RH",0.86%
same,Known Related Substances HN67003,"[5]; 3 months, 25° C./60% RH",0.04%
same,"M6G Assay, Anhydrous basis","[5]; 3 months, 25° C./60% RH",100.27 % w/w
same,"M6G Assay, As is basis","[5]; 3 months, 25° C./60% RH",91.84 % w/w
same,"M6G Assay, Corrected for the salt form","[5]; 3 months, 25° C./60% RH",100.27 % w/w
same,Total Known,"[5]; 3 months, 25° C./60% RH",0.90%
same,Total Related Substances,"[5]; 3 months, 25° C./60% RH",1.42%
same,Total Unknown,"[5]; 3 months, 25° C./60% RH",0.52%
same,Known Related Substances HN33177,"[5]; 3 months, 40° C./75% RH",0.95%
same,Known Related Substances HN67003,"[5]; 3 months, 40° C./75% RH",0.23%
same,Known Related Substances HN75076,"[5]; 3 months, 40° C./75% RH",0.01%
same,Known Related Substances Morphine,"[5]; 3 months, 40° C./75% RH",0.07%
same,"M6G Assay, Anhydrous basis","[5]; 3 months, 40° C./75% RH",97.15 % w/w
same,"M6G Assay, As is basis","[5]; 3 months, 40° C./75% RH",88.67 % w/w
same,"M6G Assay, Corrected for the salt form","[5]; 3 months, 40° C./75% RH",97.15 % w/w
same,Total Known,"[5]; 3 months, 40° C./75% RH",1.26%
same,Total Related Substances,"[5]; 3 months, 40° C./75% RH",4.34%
same,Total Unknown,"[5]; 3 months, 40° C./75% RH",3.08%
same,increase in the amount of degradation products as measured by HPLC,"[5]; 3 months, 40° C./75% RH",approximately 3%
same,stability assessment,"[5]; 25° C./60% RH, three months",relatively stable
same,stability assessment,[5]; 40° C./75% RH over 3 months (base also 60° C. over 1 month),shows signs of degradation
same,Known Related Substances HN33177,[5]; Initial,0.87%
same,Known Related Substances HN67003,[5]; Initial,0.05%
same,Known Related Substances HN75083,[5]; Initial,0.06%
same,"M6G Assay, Anhydrous basis",[5]; Initial,99.79 % w/w
same,"M6G Assay, As is basis",[5]; Initial,91.07 % w/w
same,"M6G Assay, Corrected for the salt form",[5]; Initial,99.79 % w/w
same,Total Known,[5]; Initial,0.98%
same,Total Related Substances,[5]; Initial,0.98%
same,Total Unknown,[5]; Initial,0.00%
same,stability on storage,[6]; stored at room temperature,does degrade
same,stability on storage,[6]; stored at −20° C.,stable
